Assay results taken from doi:10.1101/2025.02.11.637513v1 (bioRxiv, 2025).
Non-standard residues stand in square brackets, D forms with d. No end group written: not given here. *: point of attachment. Bip = N[C@@H](Cc1ccc(-c2ccccc2)cc1)C(=O)O; Hyp = O=C(O)[C@@H]1C[C@@H](O)CN1; Tic = O=C(O)[C@@H]1Cc2ccccc2CN1; Bn = c1ccc(C*)cc1

Columns and labels:
Experiment in all cases: tetrapeptide-ACC substrate cleavage kinetics
Type in all cases: biochemical
[1] = target: T1, human caspase-1 (Homo sapiens, UniProt P29466); conditions: Ac-P4-P3-P2-Asp-ACC substrate, 0.05-500 μM, 2-15 nM enzyme, 37°C, triplicate
T1 sequence (P29466 120-297 limits assumed): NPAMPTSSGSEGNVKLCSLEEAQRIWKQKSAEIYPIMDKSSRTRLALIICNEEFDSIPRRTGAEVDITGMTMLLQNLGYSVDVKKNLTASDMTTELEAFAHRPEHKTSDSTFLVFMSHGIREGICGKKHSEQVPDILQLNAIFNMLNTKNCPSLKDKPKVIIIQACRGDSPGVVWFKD
T1 sequence (P29466 317-404 limits assumed): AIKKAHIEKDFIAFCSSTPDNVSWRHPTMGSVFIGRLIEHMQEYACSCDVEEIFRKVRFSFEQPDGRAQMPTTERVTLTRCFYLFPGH

[2] = target: T2, human caspase-4 (Homo sapiens, UniProt P49662); conditions: Ac-P4-P3-P2-Asp-ACC substrate, 0.05-500 μM, 35-200 nM enzyme, 37°C, triplicate
T2 sequence (P49662 81-270 limits assumed): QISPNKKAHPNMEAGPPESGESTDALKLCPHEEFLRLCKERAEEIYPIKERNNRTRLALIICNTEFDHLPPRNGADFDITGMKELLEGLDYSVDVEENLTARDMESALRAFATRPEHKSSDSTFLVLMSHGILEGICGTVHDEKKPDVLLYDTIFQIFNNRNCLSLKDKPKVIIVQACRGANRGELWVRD
T2 sequence (P49662 290-377 limits assumed): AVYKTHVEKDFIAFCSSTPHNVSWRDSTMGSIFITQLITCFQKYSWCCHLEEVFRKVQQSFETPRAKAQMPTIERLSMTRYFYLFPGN

[3] = target: T3, human caspase-5 (Homo sapiens, UniProt P51878); conditions: Ac-P4-P3-P2-Asp-ACC substrate, 0.05-500 μM, 20-250 nM enzyme, 37°C, triplicate
T3 sequence (P51878 137-327 limits assumed): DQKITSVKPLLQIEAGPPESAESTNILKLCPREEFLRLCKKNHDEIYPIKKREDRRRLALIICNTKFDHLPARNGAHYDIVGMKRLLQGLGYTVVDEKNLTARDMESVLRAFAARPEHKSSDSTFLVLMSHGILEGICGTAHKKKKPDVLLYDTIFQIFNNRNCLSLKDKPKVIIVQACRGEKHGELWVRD
T3 sequence (P51878 347-434 limits assumed): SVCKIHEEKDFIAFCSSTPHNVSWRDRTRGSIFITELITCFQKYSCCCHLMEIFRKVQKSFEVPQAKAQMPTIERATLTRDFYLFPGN

[4] = target: T4, human caspase-3 (Homo sapiens, UniProt P42574); conditions: Ac-P4-P3-P2-Asp-ACC substrate, 0.05-500 μM, 3-35 nM enzyme, 37°C, triplicate
T4 sequence (P42574 29-175 limits assumed): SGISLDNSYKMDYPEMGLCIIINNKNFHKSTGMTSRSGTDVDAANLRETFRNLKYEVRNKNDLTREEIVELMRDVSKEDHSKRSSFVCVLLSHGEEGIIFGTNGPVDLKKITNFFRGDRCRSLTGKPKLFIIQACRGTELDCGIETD
T4 sequence (P42574 176-277 limits assumed): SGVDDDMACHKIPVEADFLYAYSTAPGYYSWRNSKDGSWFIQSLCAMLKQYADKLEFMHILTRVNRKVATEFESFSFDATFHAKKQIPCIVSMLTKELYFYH

[5] = target: T5, human caspase-7 (Homo sapiens, UniProt P55210); conditions: Ac-P4-P3-P2-Asp-ACC substrate, 0.05-500 μM, 40-400 nM enzyme, 37°C, triplicate
T5 sequence (P55210 24-198 limits assumed): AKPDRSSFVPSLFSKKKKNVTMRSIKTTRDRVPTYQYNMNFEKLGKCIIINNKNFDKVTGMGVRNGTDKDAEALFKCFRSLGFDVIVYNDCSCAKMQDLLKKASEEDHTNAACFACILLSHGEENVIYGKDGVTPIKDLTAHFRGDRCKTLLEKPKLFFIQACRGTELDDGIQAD
T5 sequence (P55210 207-303 limits assumed): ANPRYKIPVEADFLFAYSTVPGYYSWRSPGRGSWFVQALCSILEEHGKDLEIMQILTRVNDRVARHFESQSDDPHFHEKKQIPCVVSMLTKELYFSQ

[6] = target: human caspase-8 (Homo sapiens, UniProt Q14790); conditions: Ac-P4-P3-P2-Asp-ACC substrate, 0.05-500 μM, 6-42 nM enzyme, 37°C, triplicate
human caspase-8, sequence (Q14790 217-374 limits assumed): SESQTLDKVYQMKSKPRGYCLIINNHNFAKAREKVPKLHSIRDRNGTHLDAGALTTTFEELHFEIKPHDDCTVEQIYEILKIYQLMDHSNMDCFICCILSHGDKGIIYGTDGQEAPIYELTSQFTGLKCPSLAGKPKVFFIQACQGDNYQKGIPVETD
human caspase-8, sequence (Q14790 385-479 limits assumed): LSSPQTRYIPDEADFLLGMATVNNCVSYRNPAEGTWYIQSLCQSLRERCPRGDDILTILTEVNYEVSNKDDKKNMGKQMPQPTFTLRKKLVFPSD

[7] = target: T6, human caspase-9 (Homo sapiens, UniProt P55211); conditions: Ac-P4-P3-P2-Asp-ACC substrate, 0.05-500 μM, 20-150 nM enzyme, 37°C, triplicate
T6 sequence (P55211 1-315 limits assumed): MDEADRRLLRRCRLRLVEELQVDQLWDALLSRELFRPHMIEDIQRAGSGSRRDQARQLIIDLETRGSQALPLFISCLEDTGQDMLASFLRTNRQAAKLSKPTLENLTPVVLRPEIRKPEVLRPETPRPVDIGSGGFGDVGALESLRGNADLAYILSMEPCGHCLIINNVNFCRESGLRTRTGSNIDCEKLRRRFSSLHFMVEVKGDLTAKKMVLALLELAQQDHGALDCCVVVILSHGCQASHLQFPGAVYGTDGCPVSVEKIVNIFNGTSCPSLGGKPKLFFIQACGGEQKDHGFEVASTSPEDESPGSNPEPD
T6 sequence (P55211 331-416 limits assumed): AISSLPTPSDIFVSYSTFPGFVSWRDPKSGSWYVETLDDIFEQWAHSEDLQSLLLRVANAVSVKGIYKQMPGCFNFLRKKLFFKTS

Row | Substance | kcat/KM caspase-1 [1] | kcat/KM caspase-4 [2] | kcat/KM caspase-5 [3] | kcat/KM caspase-3 [4] | kcat/KM caspase-7 [5] | kcat/KM caspase-8 [6] | kcat/KM caspase-9 [7]
1 | Trp-Glu-His-Asp | 552 400 M^-1s^-1 | 18 000 M^-1s^-1 | 26 800 M^-1s^-1 | 8 970 M^-1s^-1 | 410 M⁻¹ s⁻¹ | 14 900 M^-1s^-1 | 8 500 M^-1s^-1
2 | Trp-Lys-Gln-Asp | 41 600 M^-1s^-1 | 320 M⁻¹ s⁻¹ | 160 M⁻¹ s⁻¹ | < 10 M⁻¹ s⁻¹ | < 10 M⁻¹ s⁻¹ | 30 M⁻¹ s⁻¹ | 10 M⁻¹ s⁻¹
3 | Trp-Thr-ProAsp | 110 000 M^-1s^-1 | 1 920 M^-1s^-1 | 3 180 M^-1s^-1 | 700 M⁻¹ s⁻¹ | 30 M⁻¹ s⁻¹ | 960 M⁻¹ s⁻¹ | 110 M⁻¹ s⁻¹
4 | Tyr-Gln-Pro-Asp | 47 200 M^-1s^-1 | 740 M⁻¹ s⁻¹ | 1 590 M^-1s^-1 | 1 920 M^-1s^-1 | 300 M⁻¹ s⁻¹ | 2 170 M^-1s^-1 | 350 M⁻¹ s⁻¹
5 | Tyr-Glu-Lys-Asp | 39 500 M^-1s^-1 | 750 M⁻¹ s⁻¹ | 3 430 M^-1s^-1 | 580 M⁻¹ s⁻¹ | 80 M⁻¹ s⁻¹ | 2 720 M^-1s^-1 | 130 M⁻¹ s⁻¹
6 | Tyr-Lys-Ala-Asp | 10 800 M^-1s^-1 | 140 M⁻¹ s⁻¹ | 180 M⁻¹ s⁻¹ | < 10 M⁻¹ s⁻¹ | < 10 M⁻¹ s⁻¹ | 210 M⁻¹ s⁻¹ | 50 M⁻¹ s⁻¹
7 | Tyr-Lys-Met-Asp | 9 700 M^-1s^-1 | 180 M⁻¹ s⁻¹ | < 10 M⁻¹ s⁻¹ | 50 M⁻¹ s⁻¹ | 10 M⁻¹ s⁻¹ | 210 M⁻¹ s⁻¹ | 50 M⁻¹ s⁻¹
8 | Tyr-Thr-Ile-Asp | 48 100 M^-1s^-1 | 510 M⁻¹ s⁻¹ | 810 M⁻¹ s⁻¹ | 9 750 M^-1s^-1 | 1 440 M^-1s^-1 | 3 260 M^-1s^-1 | 280 M⁻¹ s⁻¹
9 | Tyr-Tyr(2,6Cl2Bzl)-His-Asp | 8 700 M^-1s^-1 | < 10 M⁻¹ s⁻¹ | 1 560 M^-1s^-1 | 1 240 M^-1s^-1 | 50 M⁻¹ s⁻¹ | 1 050 M^-1s^-1 | 310 M⁻¹ s⁻¹
10 | Tyr-Val-His-Asp | 140 500 M^-1s^-1 | 2 920 M^-1s^-1 | 9 640 M^-1s^-1 | 1 530 M^-1s^-1 | 150 M⁻¹ s⁻¹ | 2 550 M^-1s^-1 | 15 800 M^-1s^-1
11 | Tyr-Val-Lys(tfa)-Asp | 28 100 M^-1s^-1 | 660 M⁻¹ s⁻¹ | 1 360 M^-1s^-1 | 1 430 M^-1s^-1 | 200 M⁻¹ s⁻¹ | 1 260 M^-1s^-1 | 250 M⁻¹ s⁻¹
12 | VY(Bn)HD | 7 300 M^-1s^-1 | 350 M⁻¹ s⁻¹ | 660 M⁻¹ s⁻¹ | 6 900 M^-1s^-1 | 180 M⁻¹ s⁻¹ | 2 610 M^-1s^-1 | 1 790 M^-1s^-1
13 | V[Bip]HD | 9 100 M^-1s^-1 | 1 640 M^-1s^-1 | 380 M⁻¹ s⁻¹ | 15 820 M^-1s^-1 | 190 M⁻¹ s⁻¹ | 2 710 M^-1s^-1 | 1 790 M^-1s^-1
14 | V[Hyp](Bn)HD | < 10 M⁻¹ s⁻¹ | < 10 M⁻¹ s⁻¹ | < 10 M⁻¹ s⁻¹ | 510 M⁻¹ s⁻¹ | 10 M⁻¹ s⁻¹ | 3 260 M^-1s^-1 | 660 M⁻¹ s⁻¹
15 | Val-Asp-His-Asp | 6 950 M^-1s^-1 | 880 M⁻¹ s⁻¹ | 4 830 M^-1s^-1 | 19 860 M^-1s^-1 | 910 M⁻¹ s⁻¹ | 16 670 M^-1s^-1 | 6 220 M^-1s^-1
16 | Val-Gly-His-Asp | 2 000 M^-1s^-1 | 480 M⁻¹ s⁻¹ | 390 M⁻¹ s⁻¹ | 7 360 M^-1s^-1 | 90 M⁻¹ s⁻¹ | 1 110 M^-1s^-1 | 3 800 M^-1s^-1
17 | Val-Trp-His-Asp | 7 700 M^-1s^-1 | 1 010 M^-1s^-1 | 60 M⁻¹ s⁻¹ | 9 980 M^-1s^-1 | 210 M⁻¹ s⁻¹ | 3 500 M^-1s^-1 | 8 880 M^-1s^-1
18 | Val-hGlu-Thr(Bzl)-Asp | 21 700 M^-1s^-1 | 1 840 M^-1s^-1 | 5 430 M^-1s^-1 | 163 200 M^-1s^-1 | 16 800 M^-1s^-1 | 85 540 M^-1s^-1 | 6 770 M^-1s^-1
19 | W(Me)Q[Tic]D | 268 600 M^-1s^-1 | 11 300 M^-1s^-1 | 14 500 M^-1s^-1 | 4 340 M^-1s^-1 | 290 M⁻¹ s⁻¹ | 2 580 M^-1s^-1 | 1 140 M^-1s^-1
20 | WT(Bn)HD | 644 300 M^-1s^-1 | 6 010 M^-1s^-1 | 10 640 M^-1s^-1 | 2 760 M^-1s^-1 | 120 M⁻¹ s⁻¹ | 8 230 M^-1s^-1 | 11 220 M^-1s^-1
